Reference: patent US11279733B2, “Peptide antibiotics” (priority 2017, dated 2022)
In brackets after ≈: the same amount, converted by molar mass. Like-named read-outs stand apart in the source and are kept apart here. Starred links: 1 amine or outer side, 2 acyl side, 3 side chain; linkers in the order of their positions; H or OH if unused. Positions of bridges follow the written chain, without caps; N, C: chain ends. Non-standard residues stand in square brackets, D forms with d. Residues, ends and D or L forms follow the SMILES beside them. *: point of attachment. Decanoyl(3R-OH) = CCCCCCC[C@@H](O)CC(=O)*; dBip = N[C@H](Cc1ccc(-c2ccccc2)cc1)C(=O)O; 2Nal = N[C@@H](Cc1ccc2ccccc2c1)C(=O)O; d2Nal = N[C@H](Cc1ccc2ccccc2c1)C(=O)O; Igl = N[C@H](C(=O)O)C1Cc2ccccc2C1; 3Pal = N[C@@H](Cc1cccnc1)C(=O)O; d3Pal = N[C@H](Cc1cccnc1)C(=O)O; Tle = CC(C)(C)[C@H](N)C(=O)O; NH(2-ClPh) = Clc1ccccc1N*; dDab = NCC[C@@H](N)C(=O)O; Octanoyl = CCCCCCCC(=O)*; dDap = NC[C@@H](N)C(=O)O; Dab = NCC[C@H](N)C(=O)O; CO = O=C([*:1])[*:2]

Experiments:
[1] = tested on: P. aeruginosa GN_043, PmxR
Procedure, shortened: (§1)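 Mid-log cultures grown in Mueller Hinton broth at 37° C were tested by 2-fold broth microdilution at 5×10^5 CFU/mL final. Compounds were dissolved in water and tested over a final range of 32 to 0.015 μg/mL.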

K. pneumoniae ATCC 13883 = tested on: K. pneumoniae ATCC 13883
Procedure, shortened: as §1

[2] = tested on: S. aureus ATCC 25923, MSSA
Procedure, shortened: as §1

[3] = tested on: K. pneumoniae GN_102 PmxR
Procedure, shortened: as §1

A. baumannii GN_093 PmxR = tested on: A. baumannii GN_093 PmxR
Procedure, shortened: as §1

P. aeruginosa ATCC 27853 = tested on: P. aeruginosa ATCC 27853
Procedure, shortened: as §1

A. baumannii ATCC 19606 = tested on: A. baumannii ATCC 19606
Procedure, shortened: as §1

E. coli ATCC 25922 = tested on: E. coli ATCC 25922
Procedure, shortened: as §1

[4] = tested on: P. aeruginosa GN_105, PmxR
Procedure, shortened: as §1

[5] = tested on: K. pneumoniae GN_106, PmxR
Procedure, shortened: as §1

[6] = tested on: K. pneumoniae ATCC BAA-2146, NDM-1 pos
Procedure, shortened: as §1

[7] = tested on: K. pneumoniae ATCC 700603, MDR
Procedure, shortened: as §1

[8] = Cytotoxicity, resazurin assay, HEK293; conditions: human
Procedure, shortened: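 4000 cells/well, 24 h attach (37 °C, 5% CO2); compound 24 h; 5 μM resazurin 2 h, 37 °C; fluorescence ex/em 560/590. CC50 by curve fit.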

Row | SMILES | CC50 at 24 h [8] | MIC P. aeruginosa GN_043, PmxR ([1]; polymyxin-resistant) | MIC K. pneumoniae ATCC 13883 (K. pneumoniae ATCC 13883; ATCC 13883) | MIC S. aureus ATCC 25923, MSSA ([2]; ATCC 25923) | MIC K. pneumoniae GN_102 PmxR ([3]; GN 102 PmxR) | MIC A. baumannii GN_093 PmxR (A. baumannii GN_093 PmxR; GN 093 PmxR) | MIC P. aeruginosa ATCC 27853 (P. aeruginosa ATCC 27853; ATCC 27853) | MIC A. baumannii ATCC 19606 (A. baumannii ATCC 19606; ATCC 19606) | MIC E. coli ATCC 25922 (E. coli ATCC 25922; ATCC 25922) | MIC P. aeruginosa GN_105, PmxR ([4]; GN 105, PmxR) | MIC K. pneumoniae GN_106, PmxR ([5]; GN 106, PmxR) | MIC K. pneumoniae ATCC BAA-2146, NDM-1 pos ([6]; ATCC BAA-2146) | MIC K. pneumoniae ATCC 700603, MDR ([7]; ATCC 700603) | further results
1 | CC(C)C[C@@H]1NC(=O)[C@H](CCN)NC(=O)[C@H](CCN)NC(=O)[C@H](CC(C)C)NC(=O)[C@@H](Cc2ccccc2)NC(=O)[C@H](CCN)NC(=O)[C@@H](NC(=O)[C@@H](CN)NC(=O)Nc2ccccc2Cl)CCNC1=O [compound 9188, 2-ClPh-NHCO-D-Dap-cyc[L-Dab-L-Dab-D-Phe-L-Leu-L-Dab-L-Dab-L-Leu]] ({NH(2-ClPh)-CO}-[dDap][Dab][Dab][dF]L[Dab][Dab]L; lactam 2-C) | > 300 µM |  |  |  |  |  |  |  |  |  |  |  |  | MIC P. aeruginosa GN_043, PmxR ([1]; P. aeruginosa GN_043, PmxR): >16 µg/mL; MIC K. pneumoniae ATCC 13883 (K. pneumoniae ATCC 13883; K. pneumoniae ATCC 13883): 16 µg/mL (≈ 15.8 µM); MIC S. aureus ATCC 25923, MSSA ([2]; S. aureus ATCC 25923, MSSA): >16 µg/mL; MIC K. pneumoniae GN_102 PmxR ([3]; K. pneumoniae GN_102 PmxR): >16 µg/mL; MIC A. baumannii GN_093 PmxR (A. baumannii GN_093 PmxR; A. baumannii GN_093 PmxR): >16 µg/mL; MIC P. aeruginosa ATCC 27853 (P. aeruginosa ATCC 27853; P. aeruginosa ATCC 27853): 2 µg/mL (≈ 1.97 µM); MIC A. baumannii ATCC 19606 (A. baumannii ATCC 19606; A. baumannii ATCC 19606): >32 µg/mL; MIC E. coli ATCC 25922 (E. coli ATCC 25922; E. coli ATCC 25922): 8 µg/mL (≈ 7.89 µM); MIC P. aeruginosa GN_105, PmxR ([4]; P. aeruginosa GN_105, PmxR): >16 µg/mL; MIC K. pneumoniae GN_106, PmxR ([5]; K. pneumoniae GN_106, PmxR): >16 µg/mL; MIC K. pneumoniae ATCC BAA-2146, NDM-1 pos ([6]; K. pneumoniae ATCC BAA-2146, NDM-1 pos): 8 µg/mL (≈ 7.89 µM); MIC K. pneumoniae ATCC 700603, MDR ([7]; K. pneumoniae ATCC 700603, MDR): 8 µg/mL (≈ 7.89 µM)
2 | CCCCCCC[C@@H](O)CC(=O)N[C@H](CN)C(=O)N[C@H]1CCNC(=O)[C@H](Cc2c[nH]c3ccccc23)NC(=O)[C@H](CCCNC(=N)N)NC(=O)[C@H](CCCCN)NC(=O)[C@H](C(C)(C)C)NC(=O)[C@@H](Cc2ccc(-c3ccccc3)cc2)NC(=O)[C@H](CCN)NC1=O [compound 8892, 3(R)OH-nC9CO-D-Dap-cyc[L-Dab-L-Dab-D-Bip-L-tert-Leu-L-Lys-L-Arg-L-Trp]] ({Decanoyl(3R-OH)}-[dDap][Dab][Dab][dBip][Tle]KRW; lactam 2-C) | > 300 µM | 4 µg/mL (≈ 3.17 µM) | 8 µg/mL (≈ 6.33 µM) | 4 µg/mL (≈ 3.17 µM) | 8 µg/mL (≈ 6.33 µM) | 8 µg/mL (≈ 6.33 µM) | 8 µg/mL (≈ 6.33 µM) | 8 µg/mL (≈ 6.33 µM) | 4 µg/mL (≈ 3.17 µM) | 4 µg/mL (≈ 3.17 µM) | 8 µg/mL (≈ 6.33 µM) | 4 µg/mL (≈ 3.17 µM) | 4 µg/mL (≈ 3.17 µM) | 
3 | CCCCCCC[C@@H](O)CC(=O)N[C@H](CCN)C(=O)N[C@H]1CCNC(=O)[C@H](Cc2c[nH]c3ccccc23)NC(=O)[C@H](CCN)NC(=O)[C@H](CCN)NC(=O)[C@H](CC(C)C)NC(=O)[C@@H](Cc2ccc3ccccc3c2)NC(=O)[C@H](CCN)NC1=O [compound 8113, 3(R)OH-nC9CO-D-Dab-cyc[L-Dab-L-Dab-L-Dab-D-Ala(2-Na)-L-Leu-L-Dab-L-Dab-L-Trp]] ({Decanoyl(3R-OH)}-[dDab][Dab][Dab][d2Nal]L[Dab][Dab]W; lactam 2-C) | 28 µM | 4 µg/mL (≈ 3.43 µM) | 4 µg/mL (≈ 3.43 µM) | 4 µg/mL (≈ 3.43 µM) | 8 µg/mL (≈ 6.85 µM) | 8 µg/mL (≈ 6.85 µM) | 8 µg/mL (≈ 6.85 µM) | 8 µg/mL (≈ 6.85 µM) | 8 µg/mL (≈ 6.85 µM) | 4 µg/mL (≈ 3.43 µM) | 8 µg/mL (≈ 6.85 µM) | 8 µg/mL (≈ 6.85 µM) | 8 µg/mL (≈ 6.85 µM) | 
4 | CCCCCCC[C@@H](O)CC(=O)N[C@H](CCN)C(=O)N[C@H]1CCNC(=O)[C@H](Cc2ccc3ccccc3c2)NC(=O)[C@H](CCN)NC(=O)[C@H](CCN)NC(=O)[C@H](CC(C)C)NC(=O)[C@@H](Cc2ccccc2)NC(=O)[C@H](CCN)NC1=O [compound 8908, 3(R)OH-nC9CO-D-Dab-cyc[L-Dab-L-Dab-D-Phe-L-Leu-L-Dab-L-Dab-L-Ala(2Naphthyl)]] ({Decanoyl(3R-OH)}-[dDab][Dab][Dab][dF]L[Dab][Dab][2Nal]; lactam 2-C) | 39 µM | 4 µg/mL (≈ 3.54 µM) | 2 µg/mL (≈ 1.77 µM) | 4 µg/mL (≈ 3.54 µM) | 4 µg/mL (≈ 3.54 µM) | 4 µg/mL (≈ 3.54 µM) | 4 µg/mL (≈ 3.54 µM) | 4 µg/mL (≈ 3.54 µM) | 2 µg/mL (≈ 1.77 µM) | 2 µg/mL (≈ 1.77 µM) | 4 µg/mL (≈ 3.54 µM) | 4 µg/mL (≈ 3.54 µM) | 4 µg/mL (≈ 3.54 µM) | 
5 | CCCCCCC[C@@H](O)CC(=O)N[C@H](Cc1cccnc1)C(=O)N[C@H]1CCNC(=O)[C@H](CC(C)C)NC(=O)[C@H](CCN)NC(=O)[C@H](CCN)NC(=O)[C@H](Cc2ccccc2)NC(=O)[C@@H](CC(C)C)NC(=O)[C@H](CCN)NC1=O [compound 6430, 3(R)OH-nC9CO-D-3PyPhe-cyc[L-Dab-L-Dab-D-Leu-L-Phe-L-Dab-L-Dab-L-Leu]] ({Decanoyl(3R-OH)}-[d3Pal][Dab][Dab][dL]F[Dab][Dab]L; lactam 2-C) | > 300 µM |  | 16 µg/mL (≈ 14.6 µM) | >32 µg/mL | 8 µg/mL (≈ 7.32 µM) | >32 µg/mL | 32 µg/mL (≈ 29.3 µM) | 32 µg/mL (≈ 29.3 µM) | 16 µg/mL (≈ 14.6 µM) | 32 µg/mL (≈ 29.3 µM) | 4 µg/mL (≈ 3.66 µM) | 16 µg/mL (≈ 14.6 µM) | 8 µg/mL (≈ 7.32 µM) | MIC P. aeruginosa GN_043, PmxR ([1]; P. aeruginosa GN_043, PmxR): 16 µg/mL (≈ 14.6 µM)
6 | CCCCCCCC(=O)N[C@H](CCN)C(=O)N[C@H]1CCNC(=O)[C@H](Cc2c[nH]c3ccccc23)NC(=O)[C@H](CCN)NC(=O)[C@H](CCN)NC(=O)[C@H](C2Cc3ccccc3C2)NC(=O)[C@@H](Cc2ccccc2)NC(=O)[C@H](CCN)NC1=O [compound 8898, nC7CO-D-Dab-cyc[L-Dab-L-Dab-D-Phe-L-indanylgly-L-Dab-L-Dab-L-Trp]] (Octanoyl-[dDab][Dab][Dab][dF][Igl][Dab][Dab]W; lactam 2-C) | 90 µM | 4 µg/mL (≈ 3.53 µM) | 8 µg/mL (≈ 7.06 µM) | 4 µg/mL (≈ 3.53 µM) | 4 µg/mL (≈ 3.53 µM) | 16 µg/mL (≈ 14.1 µM) | 4 µg/mL (≈ 3.53 µM) | 16 µg/mL (≈ 14.1 µM) | 4 µg/mL (≈ 3.53 µM) | 4 µg/mL (≈ 3.53 µM) | 8 µg/mL (≈ 7.06 µM) | 4 µg/mL (≈ 3.53 µM) | 4 µg/mL (≈ 3.53 µM) | 
7 | CCCCCCC[C@@H](O)CC(=O)N[C@H](CCN)C(=O)N[C@H]1CCNC(=O)[C@H](Cc2cccnc2)NC(=O)[C@H](CCN)NC(=O)[C@H](CCN)NC(=O)[C@H](CC(C)C)NC(=O)[C@@H](Cc2ccccc2)NC(=O)[C@H](CCN)NC1=O [compound 8907, 3(R)OH-nC9CO-D-Dab-cyc[L-Dab-L-Dab-D-Phe-L-Leu-L-Dab-L-Dab-L-Ala(3py)]] ({Decanoyl(3R-OH)}-[dDab][Dab][Dab][dF]L[Dab][Dab][3Pal]; lactam 2-C) | > 300 µM | 1 µg/mL (≈ 0.926 µM) | 4 µg/mL (≈ 3.71 µM) | >32 µg/mL | 32 µg/mL (≈ 29.6 µM) | >32 µg/mL | 1 µg/mL (≈ 0.926 µM) | >32 µg/mL | 4 µg/mL (≈ 3.71 µM) | 1 µg/mL (≈ 0.926 µM) | 8 µg/mL (≈ 7.41 µM) | 8 µg/mL (≈ 7.41 µM) | 4 µg/mL (≈ 3.71 µM) | 
8 | CCCCCCC[C@@H](O)CC(=O)N[C@H](CCN)C(=O)N[C@H]1CCNC(=O)[C@H](Cc2c[nH]c3ccccc23)NC(=O)[C@H](CCN)NC(=O)[C@H](CCN)NC(=O)[C@H](Cc2ccc3ccccc3c2)NC(=O)[C@@H](Cc2ccccc2)NC(=O)[C@H](CCN)NC1=O [compound 8832, nC10-3(R)OH-D-Dab-cyc[L-Dab-L-Dab-D-Phe-L-2-NaphthylAla-L-Dab-L-Dab-L-Trp]] ({Decanoyl(3R-OH)}-[dDab][Dab][Dab][dF][2Nal][Dab][Dab]W; lactam 2-C) | 26 µM | 4 µg/mL (≈ 3.33 µM) | 16 µg/mL (≈ 13.3 µM) | 4 µg/mL (≈ 3.33 µM) | 16 µg/mL (≈ 13.3 µM) | 16 µg/mL (≈ 13.3 µM) | 4 µg/mL (≈ 3.33 µM) | 8 µg/mL (≈ 6.66 µM) | 8 µg/mL (≈ 6.66 µM) | 8 µg/mL (≈ 6.66 µM) | 8 µg/mL (≈ 6.66 µM) | 8 µg/mL (≈ 6.66 µM) | 8 µg/mL (≈ 6.66 µM) | 
